Measured values taken from ChEMBL document CHEMBL2034889, “The design and synthesis of novel, potent and orally bioavailable N-aryl piperazine-1-carboxamide CCR2 antagonists with very high hERG selectivity” (Bioorg Med Chem Lett, 2012).

Tests used:
[1] = biological target: T1, C-C chemokine receptor type 2 (Homo sapiens, UniProt P41597); assay: Displacement of 125I-MCP1 from human CCR2 receptor expressed in human THP-1 cell membrane by SPA assay; format: cell membranes
[2] = biological target: T1, C-C chemokine receptor type 2; assay: Antagonist activity at human CCR2 receptor expressed in human THP-1 cells assessed as inhibition of MCP1-induced Ca2+ flux by FLIPR analysis; format: functional, cell-based
[3] = biological target: Voltage-gated inwardly rectifying potassium channel KCNH2 (Homo sapiens, UniProt Q12809)
Voltage-gated inwardly rectifying potassium channel KCNH2, sequence (Q12809 whole entry): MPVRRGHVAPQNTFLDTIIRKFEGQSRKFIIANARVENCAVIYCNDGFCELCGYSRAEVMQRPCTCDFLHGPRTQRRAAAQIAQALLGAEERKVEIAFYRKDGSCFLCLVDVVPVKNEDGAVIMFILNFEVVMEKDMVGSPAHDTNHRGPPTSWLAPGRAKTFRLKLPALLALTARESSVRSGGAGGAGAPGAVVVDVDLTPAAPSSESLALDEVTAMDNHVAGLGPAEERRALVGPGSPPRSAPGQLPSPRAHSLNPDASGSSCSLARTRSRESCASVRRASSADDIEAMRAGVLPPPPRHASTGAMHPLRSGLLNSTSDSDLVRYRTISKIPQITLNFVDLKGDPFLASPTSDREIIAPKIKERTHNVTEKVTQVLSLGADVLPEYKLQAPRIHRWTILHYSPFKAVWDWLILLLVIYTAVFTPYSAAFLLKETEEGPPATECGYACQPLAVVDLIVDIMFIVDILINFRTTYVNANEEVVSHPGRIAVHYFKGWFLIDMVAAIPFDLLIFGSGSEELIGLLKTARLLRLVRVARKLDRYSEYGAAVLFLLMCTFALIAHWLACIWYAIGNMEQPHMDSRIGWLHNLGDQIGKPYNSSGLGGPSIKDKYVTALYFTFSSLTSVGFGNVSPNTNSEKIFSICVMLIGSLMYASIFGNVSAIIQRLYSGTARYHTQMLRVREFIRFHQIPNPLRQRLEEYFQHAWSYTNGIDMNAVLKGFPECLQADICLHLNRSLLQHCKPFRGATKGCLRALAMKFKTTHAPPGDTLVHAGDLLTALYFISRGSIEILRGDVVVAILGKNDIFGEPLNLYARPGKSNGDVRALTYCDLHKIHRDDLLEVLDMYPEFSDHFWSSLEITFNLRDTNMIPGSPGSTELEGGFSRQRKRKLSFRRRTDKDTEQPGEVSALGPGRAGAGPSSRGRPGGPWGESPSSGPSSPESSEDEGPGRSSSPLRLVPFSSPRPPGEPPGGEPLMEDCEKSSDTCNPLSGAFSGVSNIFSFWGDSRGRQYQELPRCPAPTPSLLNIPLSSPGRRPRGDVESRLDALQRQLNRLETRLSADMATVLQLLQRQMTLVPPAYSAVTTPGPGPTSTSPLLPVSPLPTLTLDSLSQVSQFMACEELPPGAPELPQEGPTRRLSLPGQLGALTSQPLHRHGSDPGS

[4] = biological target: T1, C-C chemokine receptor type 2; assay: Displacement of 125I-MCP1 from human CCR2 receptor expressed in human HEK cell membrane; format: cell membranes, HEK293
[5] = Lipophilicity, log P of the compound at pH 7.4; format: physicochemical; conditions: buffer
[6] = Dissociation constant, pKa of the compound; format: physicochemical
[7] = Lipophilicity, log D of the compound at pH 7.4; format: physicochemical; conditions: buffer

T1 sequence (P41597 whole entry): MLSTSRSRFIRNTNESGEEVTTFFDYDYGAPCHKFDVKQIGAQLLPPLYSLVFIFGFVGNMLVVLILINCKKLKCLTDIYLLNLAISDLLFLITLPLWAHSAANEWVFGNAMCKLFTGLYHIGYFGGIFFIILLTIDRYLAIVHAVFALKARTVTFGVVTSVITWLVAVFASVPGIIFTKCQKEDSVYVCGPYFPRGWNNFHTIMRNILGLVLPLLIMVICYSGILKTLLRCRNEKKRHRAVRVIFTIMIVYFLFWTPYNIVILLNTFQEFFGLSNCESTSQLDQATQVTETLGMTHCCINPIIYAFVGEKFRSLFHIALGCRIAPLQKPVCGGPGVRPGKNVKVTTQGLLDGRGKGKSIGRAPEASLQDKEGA

IC50 [1] [µM] | IC50 [2] [µM] | Ki [4] [µM] | logP [5] | pKa [6] | logD [7] | SMILES | IC50 [3] [µM]
0.856 | 0.588 | – | – | – | – | CCN1CCC[C@@H](C(=O)N2CCN(C(=O)Nc3ccc(Cl)c(Cl)c3)CC2)C1 | –
0.052 | 0.161 | – | – | – | – | O=C(Nc1ccc(Cl)c(Cl)c1)N1CCN(C[C@@H]2CCCN(CC3CC3)C2)CC1 | –
0.027 | 0.184 | – | – | – | – | Cc1ccc(NC(=O)N2CCN(C[C@@H]3CCCN(C4CC4)C3)CC2)cc1Cl | 7.1
5.5 | – | – | – | – | – | CN1CCN(C)C(C(=O)N2CCN(C(=O)Nc3ccc(Cl)c(Cl)c3)CC2)C1 (racemic) | 13
0.005 | 0.042 | – | – | – | – | O=C(Nc1ccc(Cl)c(Cl)c1)N1CCN(C[C@@H]2CCCN(CCc3ccccc3)C2)CC1 | –
1.05 | 5.87 | – | – | – | – | N#Cc1cccc(NC(=O)N2CCN(C[C@@H]3CCCN(C4CC4)C3)CC2)c1 | –
0.267 | 0.262 | – | – | – | – | O=C(Nc1ccc(Cl)c(Cl)c1)N1CCN(C[C@H]2CN(C3CC3)CCO2)CC1 | –
0.17 | 0.965 | 0.4 | – | – | – | CN1CCCC(CN2CCN(C(=O)Nc3ccc(Cl)c(Cl)c3)CC2)C1 (stereo not drawn) | 1.6
0.449 | 4.36 | – | – | – | – | N#Cc1ccc(NC(=O)N2CCN(C[C@@H]3CCCN(C4CC4)C3)CC2)cc1 | –
0.017 | 0.042 | – | – | – | – | CC(C)N1CCO[C@@H](CN2CCN(C(=O)Nc3ccc(Cl)c(Cl)c3)CC2)C1 | 6.3
2.57 | > 1 | – | – | – | – | CCN1CCOC(C(=O)N2CCN(C(=O)Nc3ccc(Cl)c(Cl)c3)CC2)C1 (racemic) | 5
0.71 | > 3 | – | – | – | – | O=C(Nc1ccccc1)N1CCN(C[C@@H]2CCCN(C3CC3)C2)CC1 | –
0.016 | 0.058 | – | 4.2 | 10 | 1.62 | CC(C)N1CCC[C@@H](CN2CCN(C(=O)Nc3ccc(Cl)c(Cl)c3)CC2)C1 | 1.3
> 10 | – | – | – | – | – | O=C(Nc1ccccc1Cl)N1CCN(C[C@@H]2CCCN(C3CC3)C2)CC1 | –
0.127 | 0.22 | – | – | – | – | O=C(Nc1ccc(Cl)cc1)N1CCN(C[C@@H]2CCCN(C3CC3)C2)CC1 | 14
1.46 | – | – | – | – | – | COc1ccc(NC(=O)N2CCN(C[C@@H]3CCCN(C4CC4)C3)CC2)cc1 | –
0.069 | 0.362 | – | – | – | – | CN1CCN[C@@H](C(=O)N2CCN(C(=O)Nc3ccc(Cl)c(Cl)c3)CC2)C1 | 20
0.78 | 0.95 | – | – | – | – | O=C(Nc1ccc(Cl)c(Cl)c1)N1CCN(CC2CCCNC2)CC1 (racemic) | –
0.123 | 0.627 | – | – | – | – | CCN1CCCC(CN2CCN(C(=O)Nc3ccc(Cl)c(Cl)c3)CC2)C1 (racemic) | 4.3
